Format in all cases: in vivo
Test [1] deals with foxtail, green (green foxtail, Setaria viridis). Description: Test A postemergence, foxtail, green. The following applies: Setaria, post-emergence, 240 h, 0 to 100 scale (0 no effect, 100 complete control), read-out: Plant response rating, Foxtail, Green; for pest or weed control at 125 g/ha: 125 g ai/ha; for pest or weed control at 31 g/ha: 31 g ai/ha. The source says:
(§1) Seeds of plant species selected from barnyardgrass (Echinochloa crus-galli), kochia (Kochia scoparia), ragweed (common ragweed, Ambrosia elatior), ryegrass, Italian (Italian ryegrass, Lolium multiflorum), foxtail, giant (giant foxtail, Setaria faberii), foxtail, green (green foxtail, Setaria viridis) and pigweed (Amaranthus retroflexus) were planted into a blend of loam soil and sand and treated preemergence with a directed soil spray using test chemicals formulated in a non-phytotoxic solvent mixture which included a surfactant.
(§2) At the same time, plants selected from these weed species and also wheat (Triticum aestivum), corn (Zea mays), blackgrass (Alopecurus myosuroides), and galium (catchweed bedstraw, Galium aparine) were planted in pots containing the same blend of loam soil and sand and treated with postemergence applications of test chemicals formulated in the same manner. Plants ranged in height from 2 to 10 cm and were in the one- to two-leaf stage for the postemergence treatment. Treated plants and untreated controls were maintained in a greenhouse for approximately 10 days, after which time all treated plants were compared to untreated controls and visually evaluated for injury. […] A dash (-) response means no test result.

In test [2] the test system is foxtail, giant (giant foxtail, Setaria faberii). Description: Test A preemergence, foxtail, giant. The note with it: Setaria faberi, pre-emergence, 240 h, 0 to 100 scale (0 no effect, 100 complete control), read-out: Plant response rating, Foxtail, Giant; for pest or weed control at 31 g/ha: 31 g ai/ha; for pest or weed control at 125 g/ha: 125 g ai/ha.
Source text: as §1, §2

Test [3] shares this test system. Description: Test A postemergence, foxtail, giant. The following applies: Setaria faberi, post-emergence, 240 h, 0 to 100 scale (0 no effect, 100 complete control), read-out: Plant response rating, Foxtail, Giant; for pest or weed control at 31 g/ha: 31 g ai/ha; for pest or weed control at 125 g/ha: 125 g ai/ha.
Source text: as §1, §2

Regarding `O=C1OC(CCCC(F)(F)F)c2c(Oc3ncc(Cl)cn3)cccc21` (stereo not shown) [Compound 1, 4-[(5-Chloro-2-pyrimidinyl)oxy]-3-(4,4,4-trifluorobutyl)-1(3H)-isobenzofuranone], in test [1], the pest or weed control at 125 g/ha is 90%. Further, the pest or weed control at 500 g/ha in test [1] (500 g ai/ha) was determined as 100%.
Turning to `O=C1O[C@@H](CCCC(F)(F)F)c2c(Oc3ncc(Cl)cn3)cccc21` [Compound 2, (3S)-4-[(5-Chloro-2-pyrimidinyl)oxy]-3-(4,4,4-trifluorobutyl)-1-(3H)-isobenzofuranone], in test [1], the pest or weed control at 31 g/ha amounted to 0% and the pest or weed control at 125 g/ha was found to be 10%.
For `O=C1O[C@H](CCCC(F)(F)F)c2c(Oc3ncc(Cl)cn3)cccc21` [Compound 3, (3R)-4-[(5-Chloro-2-pyrimidinyl)oxy]-3-(4,4,4-trifluorobutyl)-1-(3H)-isobenzofuranone], in that order: 40% and 100%.
The corresponding values for `O=C1OC(CCC(F)(F)F)c2c(Oc3ncc(Cl)cn3)cccc21` (stereo not shown) [Compound 4, 4-[(5-Chloro-2-pyrimidinyl)oxy]-3-(3,3,3-trifluoropropyl)-1(3H)-isobenzofuranone] are 30% and 90%.
Turning to `O=C1COC(CCCC(F)(F)F)c2c(Oc3ncc(Cl)cn3)cccc21` (stereo not shown) [Compound 5, 8-[(5-Chloro-2-pyrimidinyl)oxy]-1-(4,4,4-trifluorobutyl)-1H-2-benzopyran-4(3H)-one], in test [1], the pest or weed control at 31 g/ha turned out to be 10% and the pest or weed control at 125 g/ha is 10%.
Turning to `FC(F)(F)CCCC1OCc2cccc(Oc3ncc(Cl)cn3)c21` (stereo not shown) [Compound 7, 5-chloro-2-[[1,3-dihydro-3-(4,4,4-trifluorobutyl)-4-isobenzofuranyl]oxy]-pyrimidine], in test [1], the pest or weed control at 31 g/ha came out at 30% and the pest or weed control at 125 g/ha is 90%.
As for `FC(F)(F)CC[C@H]1OCc2cccc(Oc3ncc(Cl)cn3)c21` [Compound 20, 5-Chloro-2-[[(3R)-1,3-dihydro-3-(3,3,3-trifluoropropyl)-4-isobenzofuranyl]oxy]-pyrimidine], in test [2], the pest or weed control at 31 g/ha turned out to be 100% and the pest or weed control at 125 g/ha amounted to 100%. Also, in test [3], the pest or weed control at 31 g/ha is 50% and the pest or weed control at 125 g/ha turned out to be 90%.
Consider `FC(F)(F)CC[C@@H]1OCc2cccc(Oc3ncc(Cl)cn3)c21` [Compound 21, 5-Chloro-2-[[(3S)-1,3-dihydro-3-(3,3,3-trifluoropropyl)-4-isobenzofuranyl]oxy]-pyrimidine], for which, in test [2], the pest or weed control at 31 g/ha is 0% and the pest or weed control at 125 g/ha is 0%. Further, in test [3], the pest or weed control at 31 g/ha is 0% and the pest or weed control at 125 g/ha amounted to 20%.
On to `O=C1c2cccc(Oc3ncc(Cl)cn3)c2C1CCCC(F)(F)F` (stereo not shown) [Compound 22, 2-[(5-Chloro-2-pyrimidinyl)oxy]-8-(4,4,4-trifluorobutyl)bicyclo[4.2.0]octa-1,3,5-trien-7-one], for which the pest or weed control at 31 g/ha stood at 10% in test [2] and 0% in test [3]. Also, the pest or weed control at 125 g/ha in test [2] stood at 70%; in test [3] it was 40%.
The corresponding values for `O=C1c2cccc(Oc3ncc(Cl)cn3)c2C1CCC(F)(F)F` (stereo not shown) [Compound 24, 2-[(5-Chloro-2-pyrimidinyl)oxy]-8-(3,3,3-trifluoropropyl)bicyclo[4.2.0]octa-1,3,5-trien-7-one] are 0%, 0%, 20% and 50%.
For `O=C1OCC(CCC(F)(F)F)c2c(Oc3ncc(Cl)cn3)cccc21` (stereo not shown) [Compound 25, 5-[(5-Chloro-2-pyrimidinyl)oxy]-3,4-dihydro-4-(3,3,3-trifluoropropyl)-1H-2-benzopyran-1-one], in that order: 20%, 0%, 90% and 30%.
In the case of `O=C1OCc2cccc(Oc3ncc(Cl)cn3)c2C1CCCC(F)(F)F` (stereo not shown) [Compound 26, 5-[(5-Chloro-2-pyrimidinyl)oxy]-1,4-dihydro-4-(4,4,4-trifluorobutyl)-3H-2-benzopyran-3-one], in test [2], the pest or weed control at 31 g/ha stood at 0% and the pest or weed control at 125 g/ha was 60%. In test [3], the pest or weed control at 31 g/ha was found to be 0% and the pest or weed control at 125 g/ha was 20%.
Regarding `FC(F)(F)CCCC1OCCc2cccc(Oc3ncc(Cl)cn3)c21` (stereo not shown) [Compound 27, 5-Chloro-2-[[3,4-dihydro-1-(4,4,4-trifluorobutyl)-1H-2-benzopyran-8-yl]oxy]pyrimidine], in test [2], the pest or weed control at 31 g/ha is 50% and the pest or weed control at 125 g/ha stood at 100%. In test [3], the pest or weed control at 31 g/ha came out at 10% and the pest or weed control at 125 g/ha stood at 30%.
The corresponding values for `O=C1OCc2cccc(Oc3ncc(Cl)cn3)c2C1CCC(F)(F)F` (stereo not shown) [Compound 29, 5-[(5-Chloro-2-pyrimidinyl)oxy]-1,4-dihydro-4-(3,3,3-trifluoropropyl)-3H-2-benzopyran-3-one] are 0%, 20%, 0% and 10%.
For `O=C1CCC(CCCC(F)(F)F)c2c(Oc3ncc(Cl)cn3)cccc21` (stereo not shown) [Compound 30, 5-[(5-Chloro-2-pyrimidinyl)oxy]-3,4-dihydro-4-(4,4,4-trifluorobutyl)-1(2H)-naphthalenone], in that order: 10%, 80%, 0% and 40%.
Turning to `FC(F)(F)CCC1OCCc2cccc(Oc3ncc(Cl)cn3)c21` (stereo not shown) [Compound 32, 5-Chloro-2-[[3,4-dihydro-1-(3,3,3-trifluoropropyl)-1H-2-benzopyran-8-yl]oxy]pyrimidine], in test [2], the pest or weed control at 31 g/ha came out at 0% and the pest or weed control at 125 g/ha was determined as 50%. Moreover, in test [3], the pest or weed control at 31 g/ha came to 0% and the pest or weed control at 125 g/ha was found to be 20%.
Turning to `FC(F)(F)CCCC1COc2cccc(Oc3ncc(Cl)cn3)c21` (stereo not shown) [Compound 33, 5-Chloro-2-[[2,3-dihydro-3-(4,4,4-trifluorobutyl)-4-benzofuranyl]oxy]pyrimidine], in test [2], the pest or weed control at 31 g/ha was 10% and the pest or weed control at 125 g/ha turned out to be 100%. In test [3], the pest or weed control at 31 g/ha came out at 20% and the pest or weed control at 125 g/ha was 20%.
With `O=C1OCc2cccc(Oc3ncc(Cl)cn3)c2C1CCCCC(F)(F)F` (stereo not shown) [Compound 34, 5-[(5-Chloro-2-pyrimidinyl)oxy]-1,4-dihydro-4-(5,5,5-trifluoropentyl)-3H-2-benzopyran-3-one], the pest or weed control at 31 g/ha in test [2] and in test [3] was 0% each time. In addition, the pest or weed control at 125 g/ha is 10% in test [2] and 20% in test [3].
As to `FC(F)(F)CCC1COc2cccc(Oc3ncc(Cl)cn3)c21` (stereo not shown) [Compound 36, 5-Chloro-2-[[2,3-dihydro-3-(3,3,3-trifluoropropyl)-4-benzofuranyl]oxy]pyrimidine], in test [2], the pest or weed control at 31 g/ha came to 0% and the pest or weed control at 125 g/ha was found to be 60%. For the same compound, in test [3], the pest or weed control at 31 g/ha worked out at 0% and the pest or weed control at 125 g/ha worked out at 20%.

Source of the values: patent publication US11427549B2, “Pyrimidinyloxy benzo-fused compounds as herbicides” (FMC Corporation, priority 2017, dated 2022).
